The source made the active and inactive calls. The rule behind the calls is not given here.
Columns and labels:
[1] = test system: MCF7; assay: Antiproliferative activity against human MCF7 cells after 48 hrs by MTT assay; type: functional, cell-based; conditions: MCF7, 48 h
[2] = test system: Bel-7402; assay: Antiproliferative activity against human Bel7402 cells after 48 hrs by MTT assay; type: functional, cell-based; conditions: for IC50: Bel-7402, 48 h
[3] = test system: A549; assay: Antiproliferative activity against human A549 cells after 48 hrs by MTT assay; type: functional, cell-based; conditions: A549, 48 h
[4] = test system: SGC-7901; assay: Antiproliferative activity against human SGC7901 cells after 48 hrs by MTT assay; type: functional, cell-based; conditions: SGC-7901, 48 h
[5] = test system: HepG2; assay: Antiproliferative activity against human HepG2 cells after 48 hrs by MTT assay; type: functional, cell-based
[6] = test system: HepG2; assay: Upregulation of E-cadherin in human HepG2 cells after 48 hrs by Western blot analysis; type: functional, cell-based
[7] = test system: HepG2; assay: Upregulation of P21 in human HepG2 cells at 5 to 20 uM after 24 hrs by Western blot analysis; type: functional, cell-based
[8] = test system: Bel-7402; assay: Upregulation of P27 in human Bel7402 cells at 5 to 20 uM after 24 hrs by Western blot analysis; type: functional, cell-based
[9] = test system: HepG2; assay: Antimigratory activity in human HepG2 cells assessed as cell migration at 10 uM incubated for 48 hrs by wound healing assay (reference value: 58%); type: functional
[10] = test system: Bel-7402; assay: Cell cycle arrest in human Bel7402 cells assessed as accumulation at G1 phase after 24 hrs by propidium iodide staining-based flow cytometry; type: functional
[11] = test system: HepG2; assay: Cell cycle arrest in human HepG2 cells assessed as accumulation at G1 phase after 24 hrs by propidium iodide staining-based flow cytometry; type: functional
[12] = test system: Bel-7402; assay: Antimigratory activity in human Bel7402 cells assessed as cell migration at 10 uM incubated for 48 hrs by wound healing assay (reference value: 60%); type: functional
[13] = test system: HepG2; assay: Cell cycle arrest in human HepG2 cells assessed as accumulation at G1 phase at 20 uM after 24 hrs by propidium iodide staining-based flow cytometry (reference value: 48%); type: functional
[14] = test system: HepG2; assay: Antimigratory activity in human HepG2 cells assessed as cell migration at 20 uM incubated for 48 hrs by wound healing assay (reference value: 58%); type: functional
[15] = test system: Bel-7402; assay: Antiproliferative activity against human Bel7402 cells at 5 to 40 uM by MTT assay; type: functional, cell-based; conditions: TDE = time-dependent effect
[16] = test system: Bel-7402; assay: Cell cycle arrest in human Bel7402 cells assessed as accumulation at G1 phase at 10 uM after 24 hrs by propidium iodide staining-based flow cytometry (reference value: 49%); type: functional
[17] = test system: Bel-7402; assay: Cell cycle arrest in human Bel7402 cells assessed as accumulation at G1 phase at 20 uM after 24 hrs by propidium iodide staining-based flow cytometry (reference value: 49%); type: functional
[18] = test system: Bel-7402; assay: Antimigratory activity in human Bel7402 cells assessed as cell migration at 20 uM incubated for 48 hrs by wound healing assay (reference value: 60%); type: functional
[19] = test system: HepG2; assay: Antiproliferative activity against human HepG2 cells at 5 to 40 uM by MTT assay; type: functional, cell-based; conditions: TDE = time-dependent effect
[20] = test system: Bel-7402; assay: Downregulation of N-cadherin in human Bel7402 cells after 48 hrs by Western blot analysis; type: functional, cell-based
[21] = test system: Bel-7402; assay: Upregulation of E-cadherin in human Bel7402 cells after 48 hrs by Western blot analysis; type: functional, cell-based
[22] = test system: Bel-7402; assay: Upregulation of P21 in human Bel7402 cells at 5 to 20 uM after 24 hrs by Western blot analysis; type: functional, cell-based
[23] = test system: HepG2; assay: Downregulation of N-cadherin in human HepG2 cells after 48 hrs by Western blot analysis; type: functional, cell-based
[24] = test system: HepG2; assay: Upregulation of P27 in human HepG2 cells at 5 to 20 uM after 24 hrs by Western blot analysis; type: functional, cell-based
[25] = test system: HepG2; assay: Cell cycle arrest in human HepG2 cells assessed as accumulation at G1 phase at 10 uM after 24 hrs by propidium iodide staining-based flow cytometry (reference value: 48%); type: functional

SMILES: O=c1c2c(oc3ccc(Cl)cc13)N1C[C@@H]3CCCN4CCC[C@@H]([C@H]34)[C@H]1CC2
- IC50 [1]: 48.2 µM
- IC50 [2]: 36.2 µM
- IC50 [3]: 57 µM
- IC50 [4]: 45.2 µM

SMILES: O=c1c2c(oc3cc(C(F)(F)F)ccc13)N1C[C@@H]3CCC[N+]4([O-])CCC[C@@H]([C@H]34)[C@H]1CC2 (stereo partly specified)
- IC50 [1]: 73.8 µM
- IC50 [2]: 66 µM
- IC50 [3]: 114 µM
- IC50 [4]: 79.1 µM

SMILES: O=c1c2c(oc3cc(C(F)(F)F)ccc13)N1C[C@@H]3CCCN4CCC[C@@H]([C@H]34)[C@H]1CC2
- IC50 [1]: 30.7 µM
- IC50 [2]: 31.4 µM
- IC50 [3]: 41.2 µM
- IC50 [4]: 34.9 µM

SMILES: O=C1CCC[C@@H]2[C@H]3CCCN4CCC[C@@H](CN12)[C@@H]34 [MATRINE]
- IC50 [1]: 2500 µM
- Activity [2]: Dose-dependent effect
- IC50 [2]: 2060 µM
- IC50 [3]: 3920 µM
- IC50 [4]: 1380 µM

SMILES: Cc1ccc2c(=O)c3c(oc2c1)N1C[C@@H]2CCC[N+]4([O-])CCC[C@@H]([C@H]24)[C@H]1CC3 (stereo partly specified)
- IC50 [1]: 53.3 µM
- IC50 [2]: 49.3 µM
- IC50 [3]: 73.8 µM
- IC50 [4]: 57.1 µM

SMILES: Cc1ccc2c(=O)c3c(oc2c1)N1C[C@@H]2CCCN4CCC[C@@H]([C@H]24)[C@H]1CC3
- IC50 [1]: 48.6 µM
- IC50 [2]: 30.3 µM
- IC50 [3]: 52.9 µM
- IC50 [4]: 46.8 µM

SMILES: COc1ccc2c(=O)c3c(oc2c1)N1C[C@@H]2CCCN4CCC[C@@H]([C@H]24)[C@H]1CC3
- IC50 [1]: 77.4 µM
- IC50 [2]: 48 µM
- IC50 [3]: 97.6 µM
- IC50 [4]: 67.2 µM

SMILES: O=c1c2c(oc3ccc(O)cc13)N1C[C@@H]3CCCN4CCC[C@@H]([C@H]34)[C@H]1CC2
- IC50 [1]: > 100 µM
- IC50 [2]: > 100 µM
- IC50 [3]: > 100 µM
- IC50 [4]: > 100 µM

SMILES: Cc1cccc2c(=O)c3c(oc12)N1C[C@@H]2CCCN4CCC[C@@H]([C@H]24)[C@H]1CC3
- IC50 [1]: 52.9 µM
- IC50 [2]: 40.7 µM
- IC50 [3]: 73.2 µM
- IC50 [4]: 51.5 µM

SMILES: COc1cccc2c(=O)c3c(oc12)N1C[C@@H]2CCCN4CCC[C@@H]([C@H]24)[C@H]1CC3
- IC50 [1]: 75.4 µM
- IC50 [2]: 71.9 µM
- IC50 [3]: 96.5 µM
- IC50 [4]: 81.6 µM

SMILES: O=c1c2c(oc3ccccc13)N1C[C@@H]3CCCN4CCC[C@@H]([C@H]34)[C@H]1CC2
- IC50 [1]: > 100 µM
- IC50 [2]: > 100 µM
- IC50 [3]: > 100 µM
- IC50 [4]: > 100 µM

SMILES: Cc1ccc2oc3c(c(=O)c2c1)CC[C@@H]1[C@H]2CCCN4CCC[C@@H](CN31)[C@@H]24
- IC50 [1]: 57.1 µM
- IC50 [2]: 37 µM
- IC50 [3]: 97.2 µM
- IC50 [4]: 40.5 µM

SMILES: O=c1c2c(oc3cccc(O)c13)N1C[C@@H]3CCCN4CCC[C@@H]([C@H]34)[C@H]1CC2
- IC50 [1]: > 100 µM
- IC50 [2]: > 100 µM
- IC50 [3]: > 100 µM
- IC50 [4]: > 100 µM

SMILES: O=c1c2c(oc3cc(Cl)ccc13)N1C[C@@H]3CCCN4CCC[C@@H]([C@H]34)[C@H]1CC2
- Activity [5]: Dose-dependent effect
- Activity [6]: Dose-dependent effect
- Activity [7]: Active
- Activity [8]: Active
- Activity [9]: 80%
- Activity [10]: Dose-dependent effect
- IC50 [1]: 28.1 µM
- Activity [11]: Dose-dependent effect
- IC50 [2]: 25.2 µM
- Activity [12]: 75%
- Activity [13]: 65%
- IC50 [3]: 36 µM
- Activity [14]: 83%
- Activity [15]: Tde
- Activity [16]: 67%
- IC50 [4]: 28.9 µM
- Activity [17]: 79%
- Activity [18]: 85%
- Activity [19]: Tde
- Activity [20]: Dose-dependent effect
- Activity [21]: Dose-dependent effect
- Activity [22]: Active
- Activity [23]: Dose-dependent effect
- Activity [24]: Active
- Activity [25]: 54%

SMILES: COc1cccc2oc3c(c(=O)c12)CC[C@@H]1[C@H]2CCCN4CCC[C@@H](CN31)[C@@H]24
- IC50 [1]: 74.1 µM
- IC50 [2]: 69.5 µM
- IC50 [3]: 93.5 µM
- IC50 [4]: 81.7 µM

SMILES: O=c1c2c(oc3cc(O)ccc13)N1C[C@@H]3CCCN4CCC[C@@H]([C@H]34)[C@H]1CC2
- IC50 [1]: > 100 µM
- IC50 [2]: > 100 µM
- IC50 [3]: > 100 µM
- IC50 [4]: > 100 µM

Source: ChEMBL document CHEMBL4477244, “Synthesis and biological evaluation of matrine derivatives as anti-hepatocellular cancer agents” (Bioorg Med Chem Lett, 2016)
